Experiment [1] deals with T1, Histone deacetylase 8 (Mus musculus) (UniProt Q8VH37).
T1 sequence (whole entry): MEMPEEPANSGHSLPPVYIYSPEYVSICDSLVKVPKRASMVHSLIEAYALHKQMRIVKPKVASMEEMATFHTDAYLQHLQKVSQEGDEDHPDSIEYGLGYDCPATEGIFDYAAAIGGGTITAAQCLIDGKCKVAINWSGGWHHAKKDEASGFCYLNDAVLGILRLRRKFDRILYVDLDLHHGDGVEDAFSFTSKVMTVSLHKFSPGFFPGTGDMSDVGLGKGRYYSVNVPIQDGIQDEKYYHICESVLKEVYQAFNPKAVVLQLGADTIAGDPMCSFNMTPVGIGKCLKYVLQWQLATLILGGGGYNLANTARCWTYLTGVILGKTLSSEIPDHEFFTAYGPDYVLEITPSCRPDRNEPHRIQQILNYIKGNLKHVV
Kind of experiment: Inhibition of HDAC8 in mouse B16-F10 cells assessed as effect on acetylated SMC3 level at 1 to 2 uM measured for 24 hrs by Western blot analysis. It is filed as cell-based. The settings on record: dose 1-2 µM. (In general: Immunoblotting shows a protein as a band on a membrane.)

Experiment [2] relates to B16-F10. Kind of experiment: Induction of apoptosis in mouse B16-F10 cells at 4 uM measured for 48 hrs by Annexin-V/FITC staining based flow cytometry analysis relative to control. It is filed as functional. (In general: Flow cytometry measures light scatter and fluorescence of single cells or particles in a stream.)
The subject of experiment [3] is B16-F10. Kind of experiment: Induction of apoptosis in mouse B16-F10 cells at 8 uM measured for 48 hrs by Annexin-V/FITC staining based flow cytometry analysis relative to control. It is filed as functional.
Another experiment addresses Histone deacetylase 1 (Homo sapiens, UniProt Q13547). The experiment can be described thus: Inhibition of human recombinant HDAC1 using Ac-Leu-Gly-Lys (Ac)-AMC as substrate preincubated with compound for 10 mins followed by substrate addition and measured after 45 mins by TECAN microtiter plate reader analysis.
Experiment [4] deals with B16-F10. Kind of experiment: Cytotoxicity against mouse B16-F10 cells assessed as increase in dead cells at 0.5 to 8 uM measured for 48 hrs by calcein-AM/propidium iodide staining based analysis. It is filed as functional, cell-based. The settings on record: dose 0.5-8 µM.
The subject of another experiment is HCT-116. Kind of experiment: cells. The settings on record: Homo sapiens, HCT-116, 48 h.
In experiment [5] the test system is B16-F10. Kind of experiment: Induction of apoptosis in mouse B16-F10 cells at 2 uM measured for 48 hrs by Annexin-V/FITC staining based flow cytometry analysis relative to control. The experiment is classed as functional.
Experiment [6] addresses T2, Protein deacetylase HDAC6 (Homo sapiens, UniProt Q9UBN7).
T2 sequence (Q9UBN7 whole entry): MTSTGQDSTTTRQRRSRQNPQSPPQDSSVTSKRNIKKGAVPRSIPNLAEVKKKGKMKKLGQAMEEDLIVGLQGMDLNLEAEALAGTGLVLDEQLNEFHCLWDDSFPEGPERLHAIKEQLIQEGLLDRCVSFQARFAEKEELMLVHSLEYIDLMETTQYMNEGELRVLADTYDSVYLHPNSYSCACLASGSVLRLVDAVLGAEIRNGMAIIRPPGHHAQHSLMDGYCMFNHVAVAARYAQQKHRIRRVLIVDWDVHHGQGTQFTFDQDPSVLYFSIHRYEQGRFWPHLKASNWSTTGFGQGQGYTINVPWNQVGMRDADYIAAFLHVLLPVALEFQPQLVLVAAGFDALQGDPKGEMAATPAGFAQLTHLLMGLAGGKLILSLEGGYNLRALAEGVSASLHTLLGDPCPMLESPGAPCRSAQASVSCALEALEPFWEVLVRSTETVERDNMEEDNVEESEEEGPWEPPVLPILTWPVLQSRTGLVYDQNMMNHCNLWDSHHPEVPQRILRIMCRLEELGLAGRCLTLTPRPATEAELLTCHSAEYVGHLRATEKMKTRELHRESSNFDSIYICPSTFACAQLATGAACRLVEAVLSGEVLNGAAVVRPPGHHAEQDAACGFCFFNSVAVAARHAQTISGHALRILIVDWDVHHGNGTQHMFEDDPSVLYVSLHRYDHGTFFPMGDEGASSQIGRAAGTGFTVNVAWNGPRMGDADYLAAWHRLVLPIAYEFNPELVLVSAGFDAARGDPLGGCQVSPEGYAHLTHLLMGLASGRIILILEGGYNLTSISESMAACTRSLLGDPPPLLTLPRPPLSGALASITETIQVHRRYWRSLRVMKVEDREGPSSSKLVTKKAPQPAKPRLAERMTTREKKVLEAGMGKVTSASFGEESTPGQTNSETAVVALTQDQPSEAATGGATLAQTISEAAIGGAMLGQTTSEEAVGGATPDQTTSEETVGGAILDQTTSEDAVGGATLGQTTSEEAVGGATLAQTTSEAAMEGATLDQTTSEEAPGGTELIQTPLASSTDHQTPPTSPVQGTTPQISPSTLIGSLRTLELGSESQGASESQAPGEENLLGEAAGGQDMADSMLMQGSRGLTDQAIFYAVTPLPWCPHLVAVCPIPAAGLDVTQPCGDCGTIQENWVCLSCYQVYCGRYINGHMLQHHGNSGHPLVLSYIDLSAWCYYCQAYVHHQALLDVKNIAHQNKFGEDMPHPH
Kind of experiment: Inhibition of human recombinant HDAC6 using Ac-Leu-Gly-Lys (Ac)-AMC as substrate preincubated with compound for 10 mins followed by substrate addition and measured after 45 mins by TECAN microtiter plate reader analysis.

The test system of experiment [7] is B16-F10. Kind of experiment: Induction of cell cycle arrest in mouse B16-F10 cells assessed as accumulation of cells at G2/M phase measured for 48 hrs by flow cytometry analysis. The experiment is classed as functional, cell-based. Particulars: dose 0.5-4 µM.

Activity calls are given as the source filed them. No cut-off for these calls is given here.

Chain of Histone deacetylase 1 (Q13547 whole entry): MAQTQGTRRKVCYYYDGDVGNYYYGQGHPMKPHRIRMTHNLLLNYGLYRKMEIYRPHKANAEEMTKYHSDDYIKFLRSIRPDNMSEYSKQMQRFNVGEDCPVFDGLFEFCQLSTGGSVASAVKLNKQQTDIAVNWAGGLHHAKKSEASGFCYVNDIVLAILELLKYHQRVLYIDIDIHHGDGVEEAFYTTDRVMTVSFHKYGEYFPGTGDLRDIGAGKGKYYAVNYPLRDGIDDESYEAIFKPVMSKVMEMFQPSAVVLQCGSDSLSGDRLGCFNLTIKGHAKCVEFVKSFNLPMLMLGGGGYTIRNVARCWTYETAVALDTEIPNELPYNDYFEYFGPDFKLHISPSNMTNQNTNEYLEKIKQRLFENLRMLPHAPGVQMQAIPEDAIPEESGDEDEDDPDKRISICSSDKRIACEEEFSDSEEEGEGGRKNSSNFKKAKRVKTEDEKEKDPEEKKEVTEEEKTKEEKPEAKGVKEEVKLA
Description for HCT-116: Antiproliferative activity against human HCT-116 cells assessed as reduction in cell viability measured for 48 hrs by MTT assay

With `Nc1ccccc1NC(=O)c1ccc(-c2ncc(CNc3ccccc3)s2)cc1`, in experiment [1], the inhibition entry is “inactive”. Further, the Activity was 20.96% in the experiment on B16-F10 [2], 29.59% in the experiment with B16-F10 [3], 18.77% in the experiment with B16-F10 [5] and “Dose-Dependent Effect” with B16-F10 [7]. Further, the half-inhibitory concentration (IC50) (usually the concentration that inhibits the measured activity by half) on Histone deacetylase 1 was 510 nM; in the experiment on HCT-116, 1570 nM; in experiment [6], over 10000 nM. The result with B16-F10 [4] was Active.

Regarding `CCCNNC(=O)c1ccc(CNC(=O)c2ncc(CNc3ccccc3)s2)cc1`, the inhibition result in experiment [1] was “inactive”. Further, the Activity in the experiment on B16-F10 [2] is 61.25%; in the experiment on B16-F10 [3], 71.07%; with B16-F10 [5] it was 61.84%; in the experiment on B16-F10 [7] it was “Dose-Dependent Effect”. For the same compound, the 50% inhibitory concentration (IC50) is 730 nM at Histone deacetylase 1, 430 nM in the experiment with HCT-116 and over 10000 nM in experiment [6]. Further, the result in the experiment on B16-F10 [4] was Active.

The values above are taken from ChEMBL document CHEMBL5523759, “Discovery of Novel HDAC3 Inhibitors with PD-L1 Downregulating/Degrading and Antitumor Immune Effects” (J Med Chem, 2024).
